Experiments:
HBV = experiment: Determination of anti-HBV activity: HBV DNA by quantitative PCR in HepG2.2.15 cells; type: cell-based; details: for anti-HBV activity (intracellular HBV DNA amount): 1 μM, culture for 7 days, quantitative PCR (FIG. 3)
Description: FIG. 3 is a graph showing anti-HBV activity levels of purine antimetabolites. HepG2.2.15 cells were seeded at a concentration of 1×10^5 cells/well. Then, 24 hours later, purine antimetabolites (clofarabine, cladribine, and fludarabine) and entecavir (ETV) were each diluted to result in a final concentration of 1 μM and each dilution was added to cells. After culture for 7 days, the cytoplasmic fraction was collected and DNA was purified by phenol-chloroform extraction. The intracellular HBV DNA amount was evaluated by quantitative PCR using 20 ng of purified DNA.
FIG. 5 is a graph showing anti-HBV activity of clofarabine. HepG2.2.15 cells were seeded at a concentration of 1×10^5 cells/well. Then, 24 hour later, clofarabine was diluted to result in concentrations of 0, 0.97, 1.95, 3.90, 7.81, 15.6, 31.3, 62.5, 125, 250, 500, and 1000 nM and each dilution was added to cells. After culture for 7 days, the cytoplasmic fraction was collected and DNA was purified by phenol-chloroform extraction. The intracellular HBV DNA amount was evaluated by quantitative PCR using 20 ng of purified DNA.
Anti-HBV activity was evaluated by quantitative PCR for determining the amount of HBV DNA in cells or HBV DNA in the culture supernatant on day 7 after the addition of the agent using the HepG2.2.15 cell line of HBV-producing cells obtained by introducing a gene having a length twice that of the HBV genome into the human liver cancer cell line HepG2. For PCR of HBV DNA, a forward primer (HBV-S190F; 5′-GCT CGT GTT ACA GGC GGG-3′: SEQ ID NO: 1) and a reverse primer (HBV-S703R; 5′-GAACCACTGAACAAATGGCACTAGTA-3′: SEQ ID NO: 2) were used. PCR was performed by carrying out a reaction at 95° C. for 10 sec, 62° C. for 10 sec, and 72° C. for 30 sec for 35 cycles.
For screening of the anti-HBV agent, the HepG2.2.15 line obtained by introducing the HBV gene into HepG2 cells of a human cancer cell line was used (Production of hepatitis B virus particles in HepG2 cells transfected with cloned hepatitis B virus DNA. Sells M A, Chen M L, and Acs G., Proc. Natl. Acad. Sci. USA 84: 1005-1009 (1987)). […]

HCV = experiment: Evaluation of anti-HCV activity: Renilla luciferase HCV RNA replication reporter in OR6 cells; type: cell-based; details: 1 μM, culture for 3 days (FIG. 4)
Description: FIG. 4 is a graph showing anti-HCV activity levels of purine antimetabolites. OR6 cells were seeded at a concentration of 1.5×10^4 cells/well. Then, 24 hours later, purine antimetabolites were each diluted to result in a final concentration of 1 μM and each dilution was added to cells. After culture for 3 days, cells were collected to determine Renilla luciferase activity.
FIG. 7 is a graph showing anti-HCV activity of clofarabine. OR6 cells were seeded at a concentration of 1.5×10^4 cells/well. Then, 24 hour later, clofarabine was diluted to result in concentrations of 0, 15.6, 31.3, 62.5, 125, 250, 500, and 1000 nM and each dilution was added to cells. After culture for 3 days, cells were collected to determine Renilla luciferase activity.
Anti-HCV activity was evaluated using OR6 cells from the human liver cancer cell line HuH-7 and ORL8 cells from the human liver cancer cell line Li23. Since the Renilla Luciferase gene has been incorporated into the genome of the genotype-1b O strain in OR6 cells and ORL8 cells, it is possible to conveniently and accurately evaluate the level of HCV RNA replication by determining the Renilla Luciferase activity. Each agent was added to OR6 cells or ORL8 cells, the cells were recovered on day 3, and the Renilla Luciferase activity was determined. […]

leukemia = details: clinical use for leukemia; cited from earlier work

Nc1nc(Cl)nc2c1ncn2[C@H]1C[C@H](O)[C@@H](CO)O1 [cladribine, 2-chloro-9-(2-deoxy-β-D-arabinofuranosyl)adenine]
anti-HBV activity (intracellular HBV DNA amount) (HBV): does not have anti-HBV activity
anti-HCV activity (Renilla luciferase activity) (HCV): has anti-HCV activity

Nc1nc(Cl)nc2c1ncn2[C@@H]1O[C@H](CO)[C@@H](O)[C@@H]1F [clofarabine, 2-chloro-9-(2-deoxy-2-fluoro-β-D-arabinofuranosyl)adenine]
anti-HBV activity (intracellular HBV DNA amount) (HBV): comparable to that of entecavir
concentration at which anti-HBV activity is exhibited (HBV; 7 days (FIG. 5)): about 20 nM
effective blood level for leukemia (leukemia): about 2 μM
anti-HCV activity (Renilla luciferase activity) (HCV): comparable to that of sofosbuvir

Reference: US10987372B2, “Anti-hepatoma-virus agent” (KAGOSHIMA UNIVERSITY, priority 2016, dated 2021)
